Experimental data reported in US20180344808A1, “HAPTOGLOBIN DERIVATIVE FOR TREATMENT OF SEPSIS AND ACETAMINOPHEN-INDUCED LIVER DAMAGE” (THE FEINSTEIN INSTITUTE FOR MEDICAL RESEARCH, priority 2017, published 2018).
No end group written: not given here.

Experiments:
[1] = system: HMGB1-induced TNF release in primary mouse macrophages; test: Inhibition of HMGB1-induced TNF release in primary mouse macrophages; format: cell-based; conditions: N=5, result in words
From the text: (§1) FIG. 6A-6C: 6A. Schematics of haptoglobin (Hp) β and Hp β peptide (SEQ ID NO:1). 6B. […] 6C. […] N=5.
(§2) Haptoglobin β peptide retains the activity to bind and inhibit HMGB1 toxicity. […] (See FIG. 6C).

[2] = target: T1, HMGB1 (Homo sapiens, UniProt P09429); test: Surface plasmon resonance (BIAcore) analysis of binding to HMGB1
T1 sequence (P09429 1-215): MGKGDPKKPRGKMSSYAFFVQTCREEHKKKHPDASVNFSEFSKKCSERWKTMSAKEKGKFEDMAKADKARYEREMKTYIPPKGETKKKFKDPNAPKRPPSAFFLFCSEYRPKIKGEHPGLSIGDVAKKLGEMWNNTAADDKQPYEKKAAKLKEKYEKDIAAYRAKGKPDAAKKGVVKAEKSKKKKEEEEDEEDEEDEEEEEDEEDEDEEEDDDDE
From the text: FIG. 2A-2B: 2A. Human haptoglobin has three phenotypes and contains α and β subunits. 2B. […] Data shown is representative of 3 separate experiments.
as §1
Haptoglobin (Hp) β binds to HMGB1: Human haptoglobin has three phenotypes and contains α and β subunits.
as §2

[3] = system: CLP-induced sepsis; test: Survival in cecal ligation and puncture (CLP)-induced sepsis; format: in vivo, mice
From the text: (§3) Haptoglobin is a complex protein consisting of α and β subunits (Yueh S C et al. J Chromatography, 2007). […] Administration of haptoglobin β subunit protects against lethality in mice with CLP-induced sepsis (CLP survival=85% in haptoglobin β-treated versus 50% in vehicle-treated group; n=22 mice per group, P<0.05) and in experimental acetaminophen-induced liver injury (Survival in haptoglobin β treated group=80% versus 35% in vehicle control group, P<0.05, n=20 mice per group). Screening of a peptide library of the haptoglobin β identified a critical region ([…], residues #278-305 in the B subunit) that retains the ability to inhibit HMGB1-induced TNF release from cultured macrophages. Taken together, these findings reveal a novel mechanism for haptoglobin modulation of the inflammatory action of HMGB1, with significant implications for developing experimental strategies targeting HMGB 1-dependent inflammatory diseases.
N=16 mice/group. […] Recombinant haptoglobin β (10 or 100 μg/mouse) was given once a day for 3 days starting at 24 hours after CLP surgery (N=25 mice/group). (See FIG. 5A-5B).

[4] = system: HMGB1-induced TNF release in murine macrophage-like RAW 264.7 cells; test: Inhibition of HMGB1-induced TNF release in RAW 264.7 cells; format: cell-based
Description: FIG. 3A-3B: HMGB1 stimulated TNF release in murine macrophage-like RAW 264.7 cells. 3A. The addition of haptoglobin produced a dose-dependent attenuation of the HMGB1-induced TNF release (up to 90% inhibition at 100 μg/ml). 3B. […] N=3-5 experiments. *: P<0.05 vs. HMGB1 alone.

[5] = system: acetaminophen-induced liver injury; test: Survival in experimental acetaminophen-induced liver injury; format: in vivo; conditions: mice; vehicle control group 35%; n=20 per group; P<0.05
From the text: as §3
Acetaminophen-induced liver injury: Administration of haptoglobin β subunit protects against lethality in mice with experimental acetaminophen-induced liver injury (survival in haptoglobin β treated group=80% versus 35% in vehicle control group, P<0.05, n=20 mice per group).

[6] = target: T2, Haptoglobin beta subunit (human) (human, UniProt P00738 162-406); test: surface plasmon resonance
T2 construct: also called haptoglobin β; Hp β
T2 sequence: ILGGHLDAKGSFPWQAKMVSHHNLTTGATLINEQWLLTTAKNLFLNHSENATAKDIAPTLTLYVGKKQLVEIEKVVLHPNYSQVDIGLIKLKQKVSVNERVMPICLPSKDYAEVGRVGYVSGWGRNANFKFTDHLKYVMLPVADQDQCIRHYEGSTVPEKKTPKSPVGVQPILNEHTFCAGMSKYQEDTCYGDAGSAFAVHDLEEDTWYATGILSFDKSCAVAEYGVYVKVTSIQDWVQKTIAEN

**Q.** Which results are given for “GYVSGWGRNANFKFTDHLKYVMLPVAD [Hpβ peptide]”?
**A.** inhibition of HMGB1-induced TNF release [1]: dose-dependently inhibited; Kd ([2]; BIAcore analysis): ~17000 nM

**Q.** How did the Kd ([2]; surface plasmon resonance, representative of 3 separate experiments) turn out when “haptoglobin β: Haptoglobin beta subunit (human), SEQ ID NO:3; recombinant” was run?
**A.** 29 nM

**Q.** And the “rescue from death after CLP” value ([3]; haptoglobin KO mice, doses as low as 100 μg per animal per day, once a day for 3 days starting 24 hours after CLP, N=25 mice/group)?
**A.** rescued from death

**Q.** And the CLP survival ([3]; mice with CLP-induced sepsis, vehicle-treated group 50%, n=22 per group, P<0.05)?
**A.** 85%

**Q.** What about the “likelihood of survival vs vehicle-treated control after CLP” value ([3]; wild type mice, 200 μg/mouse injected IP, N=16 mice/group, P<0.05) of the same molecule?
**A.** twice as likely to survive

**Q.** What about the “inhibition of HMGB1-induced TNF release” value ([4]; result in words) of the same molecule?
**A.** as effective as haptoglobin

**Q.** And the “Survival in acetaminophen-induced liver injury” value [5]?
**A.** 80%

B1: HMGB1 (ligand)
chain: T1 sequence (P09429 1-215)
notes: also called extracellular HMGB1
**Q.** With B1 as the molecule, how does the Kd [6] read?
**A.** 29 nM

B2: haptoglobin: full-length haptoglobin, acute phase protein with α and β subunits; mature human sequence SEQ ID NO:2 (protein, listed as Homo sapiens)
chain: VDSGNDVTDIADDGCPKPPEIAHGYVEHSVRYQCKNYYKLRTEGDGVYTLNDKKQWINKAVGDKLPECEADDGCPKPPEIAHGYVEHSVRYQCKNYYKLRTEGDGVYTLNNEKQWINKAVGDKLPECEAVCGKPKNPANPVQRILGGHLDAKGSFPWQAKMVSHHNLTTGATLINEQWLLTTAKNLFLNHSENATAKDIAPTLTLYVGKKQLVEIEKVVLHPNYSQVDIGLIKLKQKVSVNERVMPICLPSKDYAEVGRVGYVSGWGRNANFKFTDHLKYVMLPVADQDQCIRHYEGSTVPEKKTPKSPVGVQPILNEHTFCAGMSKYQEDTCYGDAGSAFAVHDLEEDTWYATGILSFDKSCAVAEYGVYVKVTSIQDWVQKTIAEN
**Q.** How did the “protection in intra-abdominal sepsis (CLP)” value ([3]; wild type and haptoglobin-gene deficient animals, result in words) turn out when B2 was run?
**A.** confers significant protection

**Q.** And the “inhibition of HMGB1-induced TNF release” value ([4]; at 100 μg/ml, dose-dependent)?
**A.** up to 90%
